According to ChEMBL document CHEMBL5150068, “Structure-Based Design of Tropane Derivatives as a Novel Series of CCR5 Antagonists with Broad-Spectrum Anti-HIV-1 Activities and Improved Oral Bioavailability” (J Med Chem, 2022):

Experiments:
in vitro [1] = conditions: human, TZM-bl cells
Description: Therapeutic index, ratio of CC50 for human TZM-bl cells to EC50 for antiviral activity against HIV-1 Ba-L

[2] = test system: Human immunodeficiency virus 1; assay: Antiviral activity against HIV-1 YU-2 infected in human TZM-bl cells measured after 48 hrs incubation by luciferase based analysis; type: functional, organism-based; conditions: Human immunodeficiency virus 1, YU-2, TZM-bl, 48 h
[3] = Cytotoxicity against human TZM-bl cells incubated for 48 hrs by MTT assay; type: toxicity, cell-based
[4] = molecular target: C-C chemokine receptor type 5 (Homo sapiens, UniProt P51681); assay: Antagonist activity at CCR5 (unknown origin) expressed in HEK293 cells co-expressing Galpha16 assessed as intracellular calcium change incubated for 15 mins by Fluo-4 AM calcium flux assay; type: functional, cell-based
Chain of C-C chemokine receptor type 5 (P51681 whole entry): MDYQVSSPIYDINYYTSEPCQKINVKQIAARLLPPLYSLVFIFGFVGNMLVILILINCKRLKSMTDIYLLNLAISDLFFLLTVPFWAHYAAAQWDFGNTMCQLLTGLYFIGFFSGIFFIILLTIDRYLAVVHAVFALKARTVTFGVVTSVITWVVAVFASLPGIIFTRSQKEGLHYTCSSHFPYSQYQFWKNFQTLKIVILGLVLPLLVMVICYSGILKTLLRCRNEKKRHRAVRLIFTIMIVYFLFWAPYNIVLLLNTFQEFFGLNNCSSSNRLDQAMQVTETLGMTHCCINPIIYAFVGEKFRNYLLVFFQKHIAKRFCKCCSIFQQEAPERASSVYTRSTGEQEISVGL

[5] = test system: Human immunodeficiency virus 1; assay: Antiviral activity against HIV-1 YU-2 (G140S/Q148H) infected in human TZM-bl cells measured after 48 hrs incubation by luciferase based analysis; type: functional, organism-based; conditions: Human immunodeficiency virus 1, YU-2 (G140S/Q148H)
Cytochrome P450 3A4 [6] = molecular target: T1, Cytochrome P450 3A4 (Homo sapiens, UniProt P08684); assay: Inhibition of CYP3A4 (unknown origin) using midazolam as substrate; type: ADME
T1 sequence (P08684 whole entry): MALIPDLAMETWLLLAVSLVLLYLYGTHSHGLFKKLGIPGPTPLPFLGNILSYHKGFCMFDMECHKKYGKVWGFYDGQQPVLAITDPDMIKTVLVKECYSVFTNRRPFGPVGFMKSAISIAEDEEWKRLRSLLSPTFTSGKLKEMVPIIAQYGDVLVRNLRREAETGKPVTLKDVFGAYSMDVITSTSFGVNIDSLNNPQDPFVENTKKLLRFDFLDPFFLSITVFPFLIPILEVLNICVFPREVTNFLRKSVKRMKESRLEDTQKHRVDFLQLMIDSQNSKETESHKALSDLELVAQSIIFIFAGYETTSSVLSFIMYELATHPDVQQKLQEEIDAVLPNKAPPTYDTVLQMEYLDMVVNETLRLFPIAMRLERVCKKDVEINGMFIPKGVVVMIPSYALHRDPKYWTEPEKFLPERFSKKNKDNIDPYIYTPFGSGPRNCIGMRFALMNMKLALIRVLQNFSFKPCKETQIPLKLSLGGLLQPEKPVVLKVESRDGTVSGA

[7] = test system: Human immunodeficiency virus 1; assay: Antiviral activity against HIV-1 Ba-L infected in human PM1 cells measured after 48 hrs incubation by ELISA based p24 antigen assay; type: functional, organism-based; conditions: Human immunodeficiency virus 1, Ba-L, PM1, 48 h
[8] = Cytotoxicity against human PM1 cells incubated for 48 hrs by MTT assay; type: toxicity, cell-based
[9] = test system: Human immunodeficiency virus 1; assay: Antiviral activity against HIV-1 KM018 clinical isolate infected in human PBMC measured after 48 hrs incubation by luciferase based analysis; type: functional, organism-based; conditions: Human immunodeficiency virus 1, KM018, PBMC
[10] = Cytotoxicity against human HOS-CD4-CCR5 cells incubated for 48 hrs by MTT assay; type: toxicity, cell-based
in vitro [11] = conditions: human, PM1 cells
Description: Therapeutic index, ratio of CC50 for human PM1 cells to EC50 for antiviral activity against HIV-1 SF162

[12] = Tmax in Sprague-Dawley rat at 10 mg/kg, po measured upto 24 hrs; type: ADME, organism-based; conditions: in vivo
Cytochrome P450 2C9 = Cytochrome P450 2C9 (Homo sapiens, UniProt P11712); assay: Inhibition of CYP2C9 (unknown origin); type: ADME
Chain of Cytochrome P450 2C9 (P11712 whole entry): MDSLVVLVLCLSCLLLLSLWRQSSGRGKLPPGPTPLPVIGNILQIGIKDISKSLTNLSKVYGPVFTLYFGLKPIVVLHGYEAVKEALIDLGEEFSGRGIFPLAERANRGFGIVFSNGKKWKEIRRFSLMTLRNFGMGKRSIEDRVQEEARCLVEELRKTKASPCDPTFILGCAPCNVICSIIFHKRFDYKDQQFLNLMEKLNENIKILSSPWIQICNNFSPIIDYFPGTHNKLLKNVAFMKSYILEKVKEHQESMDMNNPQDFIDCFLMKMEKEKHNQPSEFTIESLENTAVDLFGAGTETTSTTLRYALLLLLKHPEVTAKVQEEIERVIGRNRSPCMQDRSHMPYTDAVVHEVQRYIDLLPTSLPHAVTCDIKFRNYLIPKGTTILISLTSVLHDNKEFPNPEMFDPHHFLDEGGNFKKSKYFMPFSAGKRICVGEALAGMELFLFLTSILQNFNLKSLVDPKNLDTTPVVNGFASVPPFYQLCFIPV

in vitro [13] = conditions: human, PM1 cells; remark: listed apart in the source
Description: Therapeutic index, ratio of CC50 for human PM1 cells to EC50 for antiviral activity against HIV-1 YU-2

[14] = Half life in Sprague-Dawley rat at 10 mg/kg, po measured upto 24 hrs; type: ADME, organism-based; conditions: in vivo
[15] = AUC (0 to infinitive) in Sprague-Dawley rat at 2 mg/kg, iv measured upto 24 hrs; type: ADME, organism-based; set-up: dose 2 mg/kg, time < 24 hrs, route iv; conditions: Sprague-Dawley, in vivo
in vitro [16] = conditions: human, PBMC
Description: Therapeutic index, ratio of CC50 for human PBMC to EC50 for antiviral activity against HIV-1 KM018 clinical isolate

Cytochrome P450 2D6 = Cytochrome P450 2D6 (Homo sapiens, UniProt P10635); assay: Inhibition of CYP2D6 (unknown origin); type: ADME
Chain of Cytochrome P450 2D6 (P10635 whole entry): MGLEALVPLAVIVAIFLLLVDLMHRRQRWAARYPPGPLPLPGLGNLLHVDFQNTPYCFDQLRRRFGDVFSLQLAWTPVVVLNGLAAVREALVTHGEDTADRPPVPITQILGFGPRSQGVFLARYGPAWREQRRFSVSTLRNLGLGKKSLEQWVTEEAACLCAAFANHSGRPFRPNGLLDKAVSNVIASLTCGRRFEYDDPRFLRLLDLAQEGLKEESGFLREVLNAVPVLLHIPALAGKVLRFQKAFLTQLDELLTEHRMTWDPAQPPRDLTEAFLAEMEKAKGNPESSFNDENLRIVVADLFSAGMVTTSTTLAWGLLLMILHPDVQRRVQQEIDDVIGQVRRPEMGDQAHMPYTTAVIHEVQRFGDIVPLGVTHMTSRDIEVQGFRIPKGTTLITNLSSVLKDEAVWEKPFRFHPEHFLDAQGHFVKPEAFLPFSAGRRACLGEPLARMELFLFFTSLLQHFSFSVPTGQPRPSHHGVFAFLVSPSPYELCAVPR

Cytochrome P450 2C19 = Cytochrome P450 2C19 (Homo sapiens, UniProt P33261); assay: Inhibition of CYP2C19 (unknown origin); type: ADME
Chain of Cytochrome P450 2C19 (P33261 whole entry): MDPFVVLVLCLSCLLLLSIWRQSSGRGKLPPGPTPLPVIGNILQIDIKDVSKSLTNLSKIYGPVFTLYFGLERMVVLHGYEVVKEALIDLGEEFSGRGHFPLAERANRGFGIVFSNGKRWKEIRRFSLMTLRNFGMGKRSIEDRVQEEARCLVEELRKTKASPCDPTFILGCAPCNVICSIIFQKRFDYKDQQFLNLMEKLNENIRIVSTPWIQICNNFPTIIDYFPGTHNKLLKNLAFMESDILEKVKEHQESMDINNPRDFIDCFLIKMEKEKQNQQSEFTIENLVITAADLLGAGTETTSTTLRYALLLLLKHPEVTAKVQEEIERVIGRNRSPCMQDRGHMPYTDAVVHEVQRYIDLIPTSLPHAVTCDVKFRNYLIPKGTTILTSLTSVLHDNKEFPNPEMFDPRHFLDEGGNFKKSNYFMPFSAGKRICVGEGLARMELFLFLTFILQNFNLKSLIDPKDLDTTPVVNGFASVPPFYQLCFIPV

in vitro [17] = conditions: human, PM1 cells; remark: listed apart in the source
Description: Therapeutic index, ratio of CC50 for human PM1 cells to EC50 for antiviral activity against HIV-1 Ba-L

[18] = Cytotoxicity against human PBMC cells incubated for 48 hrs by MTT assay; type: toxicity, cell-based
in vitro [19] = conditions: human, PBMC; remark: listed apart in the source
Description: Therapeutic index, ratio of CC50 for human PBMC to EC50 for antiviral activity against HIV-1 KIZ001 clinical isolate

[20] = Oral bioavailability in Sprague-Dawley rat at 10 mg/kg measured upto 24 hrs; type: ADME, organism-based; conditions: Sprague-Dawley, in vivo
[21] = AUC (0 to infinitive) in Sprague-Dawley rat at 10 mg/kg, po measured upto 24 hrs; type: ADME, organism-based; set-up: dose 10 mg/kg, time < 24 hrs, route po; conditions: Sprague-Dawley, in vivo
[22] = AUC (0 to last) in Sprague-Dawley rat at 2 mg/kg, iv measured upto 24 hrs; type: ADME, organism-based; set-up: dose 2 mg/kg, time < 24 hrs, route iv; conditions: Sprague-Dawley, in vivo
[23] = test system: Human immunodeficiency virus 1; assay: Antiviral activity against HIV-1 KIZ001 clinical isolate infected in human PBMC measured after 48 hrs incubation by luciferase based analysis; type: functional, organism-based; conditions: Human immunodeficiency virus 1, KIZ001, PBMC
[24] = test system: Human immunodeficiency virus 1; assay: Antiviral activity against HIV-1 Ba-L infected in human HOS-CD4-CCR5 cells measured after 48 hrs incubation by ELISA based p24 antigen assay; type: functional, organism-based; conditions: Human immunodeficiency virus 1, Ba-L
[25] = test system: Human immunodeficiency virus 1; assay: Antiviral activity against HIV-1 IIIB infected in human TZM-bl cells measured after 48 hrs incubation by luciferase based analysis; type: functional, organism-based; conditions: Human immunodeficiency virus 1, IIIB
[26] = test system: Human immunodeficiency virus 1; assay: Antiviral activity against HIV-1 KIZ006 clinical isolate infected in human PBMC measured after 48 hrs incubation by luciferase based analysis; type: functional, organism-based; conditions: Human immunodeficiency virus 1, KIZ006, PBMC
in vitro [27] = conditions: human, HOS-CD4-CCR5 cells
Description: Therapeutic index, ratio of CC50 for human HOS-CD4-CCR5 cells to EC50 for antiviral activity against HIV-1 Ba-L

Cytochrome P450 1A2 = molecular target: T2, Cytochrome P450 1A2 (Homo sapiens, UniProt P05177); assay: Inhibition of CYP1A2 (unknown origin); type: ADME
T2 sequence (P05177 whole entry): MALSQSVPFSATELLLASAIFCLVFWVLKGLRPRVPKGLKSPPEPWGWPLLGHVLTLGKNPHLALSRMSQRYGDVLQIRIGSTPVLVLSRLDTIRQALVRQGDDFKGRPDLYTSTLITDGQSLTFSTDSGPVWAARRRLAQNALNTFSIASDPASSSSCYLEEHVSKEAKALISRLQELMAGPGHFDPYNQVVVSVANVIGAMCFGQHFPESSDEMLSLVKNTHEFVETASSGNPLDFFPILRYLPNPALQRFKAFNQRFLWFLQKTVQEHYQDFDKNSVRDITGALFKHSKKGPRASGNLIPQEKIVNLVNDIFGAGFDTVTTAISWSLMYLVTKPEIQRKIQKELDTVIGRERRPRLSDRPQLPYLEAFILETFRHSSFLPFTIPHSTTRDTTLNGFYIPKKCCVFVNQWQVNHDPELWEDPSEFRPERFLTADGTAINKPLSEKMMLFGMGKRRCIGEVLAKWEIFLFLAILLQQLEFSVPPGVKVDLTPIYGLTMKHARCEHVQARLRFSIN

in vitro [28] = conditions: human, PBMC; remark: listed apart in the source
Description: Therapeutic index, ratio of CC50 for human PBMC to EC50 for antiviral activity against HIV-1 KIZ006 clinical isolate

[29] = MRT in Sprague-Dawley rat at 10 mg/kg, po measured upto 24 hrs; type: ADME, organism-based; conditions: in vivo
[30] = Half life in Sprague-Dawley rat at 2 mg/kg, iv measured upto 24 hrs; type: ADME, organism-based; conditions: in vivo, iv, 2 mg/kg, 24 h
[31] = test system: Human immunodeficiency virus 1; assay: Antiviral activity against HIV-1 Ba-L infected in human TZM-bl cells measured after 48 hrs incubation by luciferase based analysis; type: functional, organism-based; conditions: Human immunodeficiency virus 1, Ba-L
Cytochrome P450 3A4 [32] = molecular target: T1, Cytochrome P450 3A4; assay: Inhibition of CYP3A4 (unknown origin) using testosterone as substrate; type: ADME
[33] = test system: Human immunodeficiency virus 1; assay: Antiviral activity against HIV-1 SF162 infected in human TZM-bl cells measured after 48 hrs incubation by luciferase based analysis; type: functional, organism-based; conditions: Human immunodeficiency virus 1, SF162, TZM-bl
[34] = AUC (0 to last) in Sprague-Dawley rat at 10 mg/kg, po measured upto 24 hrs; type: ADME, organism-based; set-up: dose 10 mg/kg, time < 24 hrs, route po; conditions: in vivo
[35] = Cmax in Sprague-Dawley rat at 10 mg/kg, po measured upto 24 hrs; type: ADME, organism-based; set-up: time < 24 hrs, dose 10 mg/kg, route po; conditions: in vivo
[36] = MRT in Sprague-Dawley rat at 2 mg/kg, iv measured upto 24 hrs; type: ADME, organism-based; conditions: in vivo, iv, 2 mg/kg, 24 h

SMILES: Cc1csc([C@H](CCN2[C@@H]3CC[C@H]2C[C@H](n2c(C)nnc2C(C)C)C3)NC(=O)C2CCN(S(C)(=O)=O)CC2)c1
- selectivity ratio (in vitro [1]): > 10500
- EC50 [2]: 19 nM
- CC50 at 48 h [3]: > 200000 nM
- IC50 [4]: 21.5 nM

SMILES: Cc1nc2c(n1[C@@H]1C[C@H]3CC[C@@H](C1)N3CC[C@H](NC(=O)C1CCC(F)(F)CC1)c1ccsc1)CCN(C(=O)C(C)C)C2
- selectivity ratio (in vitro [1]): > 18200
- EC50 [5]: 4.34 nM
- IC50 (Cytochrome P450 3A4 [6]): > 25000 nM
- EC50 [7]: 0.5 nM
- CC50 at 48 h [8]: > 200000 nM
- EC50 [9]: 32 nM
- CC50 at 48 h [10]: > 200000 nM
- selectivity ratio (in vitro [11]): > 12500
- EC50 [2]: 8.73 nM
- Tmax [12]: 2 h
- IC50 (Cytochrome P450 2C9): > 25000 nM
- selectivity ratio (in vitro [13]): > 22900
- half-life [14]: 10.3 h
- AUC(0-inf) [15]: 283 ng·h/mL
- selectivity ratio (in vitro [16]): 2550
- IC50 (Cytochrome P450 2D6): > 25000 nM
- IC50 (Cytochrome P450 2C19): > 25000 nM
- selectivity ratio (in vitro [17]): > 40000
- CC50 at 48 h [18]: 81700 nM
- selectivity ratio (in vitro [19]): 10400
- bioavailability [20]: 15.7%
- AUC(0-inf) [21]: 283 ng·h/mL
- AUC(0-t) at 24 h [22]: 298 ng·h/mL
- EC50 [23]: 7.82 nM
- EC50 [24]: 1.56 nM
- EC50 [25]: > 1000 nM
- EC50 [26]: 12.6 nM
- selectivity ratio (in vitro [27]): > 12800
- IC50 (Cytochrome P450 1A2): > 25000 nM
- CC50 at 48 h [3]: > 200000 nM
- selectivity ratio (in vitro [28]): 6480
- MRT [29]: 13.2 h
- IC50 [4]: 8.34 nM
- t1/2 [30]: 1.6 h
- EC50 [31]: 11 nM
- IC50 (Cytochrome P450 3A4 [32]): > 25000 nM
- EC50 [33]: 16 nM
- AUC(0-t) at 24 h [34]: 283 ng·h/mL
- Cmax [35]: 49.5 ng/mL
- MRT [36]: 13.2 h

SMILES: COc1ccc(S(N)(=O)=O)cc1C(=O)N[C@@H](CCN1[C@@H]2CC[C@H]1C[C@H](n1c(C)nnc1C(C)C)C2)c1cccs1
- CC50 at 48 h [3]: > 200000 nM
- IC50 [4]: 1380 nM
- EC50 [31]: > 200000 nM

SMILES: Cc1ccc([C@H](CCN2[C@@H]3CC[C@H]2C[C@H](n2c(C)nnc2C(C)C)C3)NC(=O)Cn2cnnn2)s1
- CC50 at 48 h [3]: > 200000 nM
- IC50 [4]: 45.1 nM
- EC50 [31]: > 50000 nM

SMILES: Cc1nnc(C(C)C)n1[C@@H]1C[C@H]2CC[C@@H](C1)N2CC[C@H](NC(=O)C(F)(F)F)c1csc2ccccc12
- CC50 at 48 h [3]: > 200000 nM
- IC50 [4]: 680 nM
- EC50 [33]: > 40000 nM

SMILES: CC(=O)N[C@@H](CCN1C2CCC1CC(n1c(C)nc3c1CCN(C(=O)C(C)C)C3)C2)c1cccc(F)c1 (some centres not stated)
- EC50 [5]: 2.3 nM
- IC50 [4]: 18.9 nM

SMILES: CNS(=O)(=O)c1cccc(C(=O)N[C@@H](CCN2[C@@H]3CC[C@H]2C[C@H](n2c(C)nnc2C(C)C)C3)c2cccs2)c1
- selectivity ratio (in vitro [1]): > 43.2
- CC50 at 48 h [3]: > 200000 nM
- IC50 [4]: 31.9 nM
- EC50 [31]: 4630 nM

SMILES: COC(=O)C1CCC(C(=O)N[C@@H](CCN2[C@@H]3CC[C@H]2C[C@H](n2c(C)nnc2C(C)C)C3)c2cccs2)CC1 (some centres not stated)
- selectivity ratio (in vitro [1]): > 22200
- EC50 [2]: 9 nM
- CC50 at 48 h [3]: > 200000 nM
- IC50 [4]: 11.8 nM

SMILES: Cc1nnc(C(C)C)n1[C@H]1C[C@H]2CC[C@@H](C1)N2CC[C@H](NC(=O)C1CCCCC1)c1ccc(C#N)s1
- CC50 at 48 h [3]: > 200000 nM
- IC50 [4]: > 10000 nM
- EC50 [31]: > 200000 nM

SMILES: Cc1ccc([C@H](CCN2[C@@H]3CC[C@H]2C[C@H](n2c(C)nnc2C(C)C)C3)NC(=O)CC#N)s1
- CC50 at 48 h [3]: > 200000 nM
- IC50 [4]: 72.7 nM
- EC50 [31]: > 50000 nM

SMILES: Cc1nnc(C(C)C)n1[C@@H]1C[C@H]2CC[C@@H](C1)N2CC[C@H](NC(=O)C1CCC(F)(F)CC1)c1ccc(C#N)s1
- CC50 at 48 h [3]: > 200000 nM
- IC50 [4]: > 10000 nM
- EC50 [31]: > 200000 nM
